Data taken from patent publication US11279733B2, “Peptide antibiotics” (priority 2017, dated 2022).
≈ marks a conversion by molar mass, not a printed value. Where two headings read alike, the source gives them in different places. Positions of bridges follow the written chain, without caps; N, C: chain ends. Non-standard residues stand in square brackets, D forms with d. Residues, ends and D or L forms follow the SMILES beside them. ξ: configuration not given here. *: point of attachment. Decanoyl(3R-OH) = CCCCCCC[C@@H](O)CC(=O)*; Decanoyl(3ξ-OH) = CCCCCCCC(O)CC(=O)*; dDab = NCC[C@@H](N)C(=O)O; Dab = NCC[C@H](N)C(=O)O; Dap = NC[C@H](N)C(=O)O

Columns and labels:
[1] = tested on: K. pneumoniae GN_102 PmxR; details: GN 102 PmxR
Procedure, shortened: (§1)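 Mid-log cultures grown in Mueller Hinton broth at 37° C were tested by 2-fold broth microdilution at 5×10^5 CFU/mL final. Compounds were dissolved in water and tested over a final range of 32 to 0.015 μg/mL.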

A. baumannii ATCC 19606 = details: ATCC 19606
Procedure, shortened: as §1

A. baumannii GN_093 PmxR = details: GN 093 PmxR
Procedure, shortened: as §1

E. coli ATCC 25922 = details: ATCC 25922
Procedure, shortened: as §1

[2] = tested on: K. pneumoniae ATCC 700603, MDR; details: ATCC 700603
Procedure, shortened: as §1

[3] = tested on: S. aureus ATCC 25923, MSSA; details: ATCC 25923
Procedure, shortened: as §1

K. pneumoniae ATCC 13883 = details: ATCC 13883
Procedure, shortened: as §1

[4] = tested on: K. pneumoniae ATCC BAA-2146, NDM-1 pos; details: ATCC BAA-2146
Procedure, shortened: as §1

[5] = tested on: P. aeruginosa GN_043, PmxR
Procedure, shortened: as §1

[6] = tested on: K. pneumoniae GN_106, PmxR; details: GN 106, PmxR
Procedure, shortened: as §1

[7] = tested on: P. aeruginosa GN_105, PmxR; details: GN 105, PmxR
Procedure, shortened: as §1

P. aeruginosa ATCC 27853 = details: ATCC 27853
Procedure, shortened: as §1

in vitro = details: human
Method: Cytotoxicity of the synthesised peptides was evaluated by comparison with commercially available colistin (polymyxin E), polymyxin B (Sigma chemical Co., St. Louis, Mo., U.S.A.) and synthetic octapeptin C4 by conducting lactate dehydrogenase (LDH) assay. CC50 values calculated based on curve fitting of dose dependent inhibition of cell growth represented the cytotoxicity of the peptide. Human kidney 2 (HK2) cells were seeded as 2000 cells per well in a 384 well cell culture plate in a final volume of 20 μL in DMEM/F12 medium (Invitrogen #11330057), in which 10% of FBS was added. Cells were incubated for 24 hours at 37° C., 5% CO2 to allow cells to attach to the plates. Similar conditions were employed for HEK293 and HepG2 cytotoxicity assays.
Cytotoxicity to HEK293 and HepG2 cells was determined using the resazurin assay (McMillian, M. K.; Li, L.; Parker, J. B.; Patel, L.; Zhong, Z.; Gunnett, J. W.; Powers, W. J.; Johnson, M. D. An improved resazurin-based cytotoxicity assay for hepatic cells; Cell Biol. Toxicol. 2002, 18, 157-173; O'Brien, J.; Wilson, I.; Orton, T.; Pognan, F. Investigation of the Alamar Blue (resazurin) fluorescent dye for the assessment of mammalian cell cytotoxicity. Eur. J. Biochem. 2000, 267, 5421-5426). In brief, HEK293 and HepG2 cells were seeded at 4000 cells/well in black-wall, clear-bottom 384-well plates (Corning, Australia) and incubated for 24 h at 37° C., 5% CO2. Compounds were then added into each well. After 24 h incubation, 5 μM resazurin was added per well and incubated at 37° C. for 2 h. Fluorescence intensity was then read using a Polarstar Omega with excitation/emission 560/590. The data was then analyzed using GraphPad Prism 6 software. CC50 values were determined using GraphPad Prism 6 software (Inc. La Jolla, Calif.).

Row | Structure (SMILES) | MIC K. pneumoniae GN_102 PmxR [1] | MIC A. baumannii ATCC 19606 (A. baumannii ATCC 19606) | MIC A. baumannii GN_093 PmxR (A. baumannii GN_093 PmxR) | MIC E. coli ATCC 25922 (E. coli ATCC 25922) | MIC K. pneumoniae ATCC 700603, MDR [2] | MIC S. aureus ATCC 25923, MSSA [3] | MIC K. pneumoniae ATCC 13883 (K. pneumoniae ATCC 13883) | MIC K. pneumoniae ATCC BAA-2146, NDM-1 pos [4] | MIC P. aeruginosa GN_043, PmxR ([5]; P. aeruginosa GN_043, PmxR) | MIC K. pneumoniae GN_106, PmxR [6] | MIC P. aeruginosa GN_105, PmxR [7] | MIC P. aeruginosa ATCC 27853 (P. aeruginosa ATCC 27853) | CC50 at 24 h (in vitro) | MIC, A. baumannii ATCC 19606 (A. baumannii ATCC 19606) | MIC, E. coli ATCC 25922 (E. coli ATCC 25922) | MIC, K. pneumoniae ATCC 700603, MDR [2] | MIC, S. aureus ATCC 25923, MSSA [3] | MIC, K. pneumoniae ATCC 13883 (K. pneumoniae ATCC 13883) | MIC, K. pneumoniae ATCC BAA-2146, NDM-1 pos [4] | MIC P. aeruginosa GN_043, PmxR ([5]; Table 6, polymyxin-resistant) | other results
1 | CCCCCCC[C@@H](O)CC(=O)N[C@H](CCN)C(=O)N[C@H]1CCNC(=O)[C@H](CC(C)C)NC(=O)[C@H](CCN)NC(=O)[C@H](CCN)NC(=O)[C@H](CC(C)C)NC(=O)[C@H](Cc2ccccc2)NC(=O)[C@H](CCN)NC1=O [compound 5002, 3(R)OH-nC9CO-D-Dab-cyc[L-Dab-L-Dab-L-Phe-L-Leu-L-Dab-L-Dab-L-Leu]] ({Decanoyl(3R-OH)}-[dDab][Dab][Dab]FL[Dab][Dab]L; lactam 2-C) | 32 µg/mL (≈ 30.6 µM) | >32 µg/mL | >32 µg/mL | 32 µg/mL (≈ 30.6 µM) | 16 µg/mL (≈ 15.3 µM) | 32 µg/mL (≈ 30.6 µM) | >32 µg/mL | 16 µg/mL (≈ 15.3 µM) | 8 µg/mL (≈ 7.66 µM) | >32 µg/mL | >32 µg/mL | 4 µg/mL (≈ 3.83 µM) | > 300 µM | – | – | – | – | – | – | – | –
2 | CCCCCCCC(O)CC(=O)N[C@H](CCN)C(=O)N[C@H]1CCNC(=O)[C@H](CC(C)C)NC(=O)[C@H](CCN)NC(=O)[C@H](CCN)NC(=O)[C@H](CC(C)C)NC(=O)[C@@H](Cc2ccccc2)NC(=O)[C@H](CCN)NC1=O (stereo partly drawn) [compound 5013, 3OH-nC9CO-D-Dab-cyc[L-Dab-L-Dab-D-Phe-L-Leu-L-Dab-L-Dab-L-Leu]] ({Decanoyl(3ξ-OH)}-[dDab][Dab][Dab][dF]L[Dab][Dab]L; lactam 2-C) | 4 µg/mL (≈ 3.83 µM) | 16 µg/mL (≈ 15.3 µM) | 8 µg/mL (≈ 7.66 µM) | 8 µg/mL (≈ 7.66 µM) | 8 µg/mL (≈ 7.66 µM) | 16 µg/mL (≈ 15.3 µM) | 4 µg/mL (≈ 3.83 µM) | 16 µg/mL (≈ 15.3 µM) | – | 16 µg/mL (≈ 15.3 µM) | 2 µg/mL (≈ 1.92 µM) | 2 µg/mL (≈ 1.92 µM) | > 300 µM | – | – | – | – | – | – | – | MIC P. aeruginosa GN_043, PmxR [5]: 2 µg/mL (≈ 1.92 µM)
3 | CCCCCCC[C@@H](O)CC(=O)N[C@H](CCCCN)C(=O)N[C@H]1CCNC(=O)[C@H](CC(C)C)NC(=O)[C@H](CCN)NC(=O)[C@H](CCN)NC(=O)[C@H](CC(C)C)NC(=O)[C@@H](Cc2ccccc2)NC(=O)[C@H](CCN)NC1=O [compound 5381, 3(R)OH-nC9CO-D-Lys-cyc[L-Dab-L-Dab-D-Phe-L-Leu-L-Dab-L-Dab-L-Leu]] ({Decanoyl(3R-OH)}-[dK][Dab][Dab][dF]L[Dab][Dab]L; lactam 2-C) | 4 µg/mL (≈ 3.73 µM) | – | 8 µg/mL (≈ 7.46 µM) | – | – | – | – | – | – | 4 µg/mL (≈ 3.73 µM) | 4 µg/mL (≈ 3.73 µM) | – | > 300 µM | 16 µg/mL (≈ 14.9 µM) | 8 µg/mL (≈ 7.46 µM) | 4 µg/mL (≈ 3.73 µM) | >32 µg/mL | 8 µg/mL (≈ 7.46 µM) | 8 µg/mL (≈ 7.46 µM) | 2 µg/mL (≈ 1.86 µM) | MIC, P. aeruginosa ATCC 27853 (P. aeruginosa ATCC 27853): 4 µg/mL (≈ 3.73 µM)
4 | CCCCCCC[C@@H](O)CC(=O)N[C@H](CCN)C(=O)N[C@H]1CCCCNC(=O)[C@H](CC(C)C)NC(=O)[C@H](CCN)NC(=O)[C@H](CCN)NC(=O)[C@H](CC(C)C)NC(=O)[C@@H](Cc2ccccc2)NC(=O)[C@H](CCN)NC1=O [compound 5382, 3(R)OH-nC9CO-D-Dab-cyc[L-Lys-L-Dab-D-Phe-L-Leu-L-Dab-L-Dab-L-Leu]] ({Decanoyl(3R-OH)}-[dDab]K[Dab][dF]L[Dab][Dab]L; lactam 2-C) | >32 µg/mL | 32 µg/mL (≈ 29.8 µM) | >32 µg/mL | 4 µg/mL (≈ 3.73 µM) | 8 µg/mL (≈ 7.46 µM) | 32 µg/mL (≈ 29.8 µM) | 8 µg/mL (≈ 7.46 µM) | 8 µg/mL (≈ 7.46 µM) | 2 µg/mL (≈ 1.86 µM) | >32 µg/mL | 2 µg/mL (≈ 1.86 µM) | 4 µg/mL (≈ 3.73 µM) | > 300 µM | – | – | – | – | – | – | – | –
5 | CCCCCCC[C@@H](O)CC(=O)N[C@@H](CN)C(=O)N[C@H]1CCNC(=O)[C@H](CC(C)C)NC(=O)[C@H](CCN)NC(=O)[C@H](CCN)NC(=O)[C@H](CC(C)C)NC(=O)[C@@H](Cc2ccccc2)NC(=O)[C@H](CCN)NC1=O [compound 5561, 3(R)OH-nC9CO-L-Dap-cyc[L-Dab-L-Dab-D-Phe-L-Leu-L-Dab-L-Dab-L-Leu]] ({Decanoyl(3R-OH)}-[Dap][Dab][Dab][dF]L[Dab][Dab]L; lactam 2-C) | 4 µg/mL (≈ 3.88 µM) | – | 8 µg/mL (≈ 7.76 µM) | – | – | – | – | – | – | 4 µg/mL (≈ 3.88 µM) | 2 µg/mL (≈ 1.94 µM) | – | > 300 µM | 16 µg/mL (≈ 15.5 µM) | 4 µg/mL (≈ 3.88 µM) | 8 µg/mL (≈ 7.76 µM) | 16 µg/mL (≈ 15.5 µM) | 4 µg/mL (≈ 3.88 µM) | 8 µg/mL (≈ 7.76 µM) | 2 µg/mL (≈ 1.94 µM) | MIC, P. aeruginosa ATCC 27853 (P. aeruginosa ATCC 27853): 2 µg/mL (≈ 1.94 µM)
6 | CCCCCCC[C@@H](O)CC(=O)N[C@@H](CCN)C(=O)N[C@H]1CCNC(=O)[C@H](CC(C)C)NC(=O)[C@H](CN)NC(=O)[C@H](CCN)NC(=O)[C@H](CC(C)C)NC(=O)[C@@H](Cc2ccccc2)NC(=O)[C@H](CCN)NC1=O [compound 5564, 3(R)OH-nC9CO-L-Dab-cyc[L-Dab-L-Dab-D-Phe-L-Leu-L-Dab-L-Dap-L-Leu]] ({Decanoyl(3R-OH)}-[Dab][Dab][Dab][dF]L[Dab][Dap]L; lactam 2-C) | 4 µg/mL (≈ 3.88 µM) | >32 µg/mL | 32 µg/mL (≈ 31.1 µM) | 8 µg/mL (≈ 7.76 µM) | 16 µg/mL (≈ 15.5 µM) | 32 µg/mL (≈ 31.1 µM) | 8 µg/mL (≈ 7.76 µM) | 8 µg/mL (≈ 7.76 µM) | – | 8 µg/mL (≈ 7.76 µM) | 32 µg/mL (≈ 31.1 µM) | 2 µg/mL (≈ 1.94 µM) | > 300 µM | – | – | – | – | – | – | – | MIC P. aeruginosa GN_043, PmxR ([5]; polymyxin-resistant): 2 µg/mL (≈ 1.94 µM)
